Source: US20050118290A1, “Compositions and method for treatment of steroid/nuclear receptor-mediated diseases” (University of Singapore, priority 2003, published 2005)
Each block holds one compound with its values, some of them ahead of it.

How the values were obtained:
Assay type in all cases: cell-based
PPARγ = biological target: T1, PPARγ (Homo sapiens, UniProt P37231); assay: Chimeric Gal4DBD-PPARγLBD receptor / UASg-luciferase reporter gene assay in HeLa cells
T1 construct: expressed in transfected cells; host or cells: HeLa
T1 sequence (P37231 238-503 limits assumed): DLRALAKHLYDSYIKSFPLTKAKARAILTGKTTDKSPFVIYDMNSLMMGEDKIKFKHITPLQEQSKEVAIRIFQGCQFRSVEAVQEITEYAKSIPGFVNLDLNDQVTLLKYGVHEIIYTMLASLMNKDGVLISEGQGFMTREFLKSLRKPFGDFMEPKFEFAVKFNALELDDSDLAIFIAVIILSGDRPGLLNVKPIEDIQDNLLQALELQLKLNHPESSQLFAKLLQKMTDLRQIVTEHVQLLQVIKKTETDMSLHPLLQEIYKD
Text: (§1) In an example of such a reporter gene assay, a plasmid containing chimeric Ga14DBD-PPARLBD receptor cDNA was constructed by excising the ligand binding domain (LBD) of full length PPARγ and PPARα and ligating the resulting fragments in frame to the Ga14-DNA binding domain (DBD) of Saccharomyces cerevisiae in a pM vector (Clontech). Specifically, to construct Ga14DBD-PPARγLBD plasmid, pSG5 expression vector (Stratagene) containing full length PPARγ was excised with Rsa I and blunt ligated to Hind III site of pMGa14DBD expression plasmid (Clontech). To construct Ga14DBD-PPARαLBD plasmid, pSG5 expression vector (Stratagene) containing full length PPARα was excised with BstU I and BamH I and blunt-end ligated in frame to BamH I site of pMGa14DBD expression plasmid (Clontech). […] Ga14 DBD binds very strongly to the exogenous UASg promoter, thereby giving rise to a sensitive and specific assay. To measure PPARγ and PPARα agonist activity, HeLa cells were grown in 24-well microtiter plates and then transiently co-transfected with the two plasmids (chimeric PPAR receptor and UASg reporter gene) using Lipofectamine (Invitrogen). […] Concurrently, cells exposed to known PPAR ligands served as positive controls. Replicate wells, exposed to the vehicle solvent (i.e., ethanol or methanol) in which herbal extracts were dissolved, were used as negative controls. After the 40 hr incubation period, cells were rinsed with phosphate buffered saline (PBS), lysis buffer was added, and cell lysates were collected for measurement of luciferase activity using a luminometer. […] All data points are in triplicate. The data points represent the mean of triplicate wells. Luciferase activity in such an assay accurately reflects the activity of any ligands on PPARγ or PPARα.

[1] = biological target: T2, human estrogen receptor ERα (Homo sapiens, UniProt P03372); assay: ERα MMTV-ERE-LUC reporter gene assay in HeLa cells
T2 construct: expressed in transfected cells; host or cells: HeLa
T2 sequence (P03372 1-595): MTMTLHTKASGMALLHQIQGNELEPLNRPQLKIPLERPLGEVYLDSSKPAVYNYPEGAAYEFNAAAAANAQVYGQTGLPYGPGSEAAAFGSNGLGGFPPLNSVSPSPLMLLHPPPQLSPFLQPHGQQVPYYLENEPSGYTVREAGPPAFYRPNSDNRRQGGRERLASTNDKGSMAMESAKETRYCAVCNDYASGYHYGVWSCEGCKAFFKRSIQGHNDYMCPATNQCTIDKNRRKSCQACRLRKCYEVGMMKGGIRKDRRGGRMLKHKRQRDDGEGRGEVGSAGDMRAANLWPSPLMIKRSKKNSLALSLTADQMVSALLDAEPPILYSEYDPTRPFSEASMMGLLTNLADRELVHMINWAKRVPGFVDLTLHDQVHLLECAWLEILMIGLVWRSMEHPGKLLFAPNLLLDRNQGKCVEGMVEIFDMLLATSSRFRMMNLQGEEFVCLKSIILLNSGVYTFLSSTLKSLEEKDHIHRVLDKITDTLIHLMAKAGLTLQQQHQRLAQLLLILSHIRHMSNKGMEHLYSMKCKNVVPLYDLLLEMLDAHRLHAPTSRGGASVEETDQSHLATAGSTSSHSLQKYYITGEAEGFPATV
Experimental: (§2) ERα and ERβ activity were assayed using plasmids encoding either ERα or ERβ co-transfected with the ERE-LUC reporter gene. To assay estrogen receptor agonist activity, HeLa cells were transiently co-transfected with two plasmids (Tcherepanova, et al., 2000) using Lipofectamine. The first plasmid comprised DNA encoding human estrogen receptor (either ERα or ERβ), and the second plasmid comprised an estrogen-driven reporter system comprising: a luciferase reporter gene (LUC) whose transcription is under the control of upstream regulatory elements comprising 4 copies of the vitellogenin estrogen response element (ERE) cloned into the Mouse Mammary Tumor Virus (MMTV) promoter (the full name of the reporter system being ‘MMTV-ERE-LUC’).
(§3) AR, PR, GR and ERα and […] were determined by comparing luciferase activity in test cells with control cells exposed to vehicle (i.e., ethanol or methanol) only, analogous to the determination of PPAR activity as described in the previous examples.

PPARα = biological target: T3, PPARα (Homo sapiens, UniProt Q07869); assay: Chimeric Gal4DBD-PPARαLBD receptor / UASg-luciferase reporter gene assay in HeLa cells
T3 construct: expressed in transfected cells; host or cells: HeLa
T3 sequence (Q07869 239-466 limits assumed): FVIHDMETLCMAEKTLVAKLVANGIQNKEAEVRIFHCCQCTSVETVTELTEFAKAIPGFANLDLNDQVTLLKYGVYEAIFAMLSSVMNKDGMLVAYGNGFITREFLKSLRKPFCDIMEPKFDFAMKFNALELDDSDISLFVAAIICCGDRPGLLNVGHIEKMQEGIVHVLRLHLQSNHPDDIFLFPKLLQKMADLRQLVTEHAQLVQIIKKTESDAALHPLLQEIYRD
Text: as §1

[2] = biological target: T4, human estrogen receptor ERβ (Homo sapiens, UniProt Q92731); assay: ERβ MMTV-ERE-LUC reporter gene assay in HeLa cells; conditions: for ERβ activity comparable to % maximal activity of Estradiol / maximal fold increase in ERβ activity: 30×10^−6 g/ml
T4 construct: expressed in transfected cells; host or cells: HeLa
T4 sequence (Q92731 whole entry): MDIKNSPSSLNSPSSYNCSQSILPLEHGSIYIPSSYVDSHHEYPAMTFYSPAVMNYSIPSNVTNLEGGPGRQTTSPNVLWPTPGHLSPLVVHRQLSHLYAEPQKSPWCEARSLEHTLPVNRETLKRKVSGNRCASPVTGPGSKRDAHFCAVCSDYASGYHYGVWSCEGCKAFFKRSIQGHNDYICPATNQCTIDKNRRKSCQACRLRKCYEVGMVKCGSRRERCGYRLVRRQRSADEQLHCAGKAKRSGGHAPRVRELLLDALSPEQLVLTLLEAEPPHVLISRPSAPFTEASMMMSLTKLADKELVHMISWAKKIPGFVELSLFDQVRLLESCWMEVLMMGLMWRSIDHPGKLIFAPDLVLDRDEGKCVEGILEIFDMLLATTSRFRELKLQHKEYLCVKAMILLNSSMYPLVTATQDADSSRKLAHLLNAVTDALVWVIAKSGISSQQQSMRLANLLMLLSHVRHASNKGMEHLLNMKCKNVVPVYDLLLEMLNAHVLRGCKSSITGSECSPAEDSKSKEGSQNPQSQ
Experimental: as §2, §3

PPARγ activity comparable to % maximal activity of pioglitazone (PPARγ; 30×10^−6 g/ml): ~50% | maximal fold PPARγ activity (PPARγ; 30×10^−6 g/ml): 40 fold | Luciferase activity (Fold over vehicle ± SE) PPARγ/Pioglitazone (30 × 10^−6M) (PPARγ; calycosin 3 ×10^−6 g/mL): 105 ± 10.7 Fold | Luciferase activity (Fold over vehicle ± SE) PPARγ/Pioglitazone (30 × 10^−6M) (PPARγ; calycosin 10 ×10^−6 g/mL): 162 ± 28.5 Fold | Luciferase activity (Fold over vehicle ± SE) PPARγ/Pioglitazone (30 × 10^−6M) (PPARγ; calycosin 30 ×10^−6 g/mL): 253 ± 30.7 Fold | increase of the activity of maximal doses of PPARγ agonist (PPARγ; with pioglitazone 30×10^−6M): 3 fold | ERα activity comparable to % maximal activity of Estradiol ([1]; 30×10^−6 g/ml): ~50% | maximal fold increase in ERα activity ([1]; 30×10^−6 g/ml): 20 fold | Luciferase activity (Fold over vehicle ± SE) ERα/Estradiol (1 × 10^−9M) ([1]; calycosin 3 ×10^−6 g/mL): 118 ± 2.18 Fold | Luciferase activity (Fold over vehicle ± SE) ERα/Estradiol (1 × 10^−9M) ([1]; calycosin 10 ×10^−6 g/mL): 127 ± 6.3 Fold | Luciferase activity (Fold over vehicle ± SE) ERα/Estradiol (1 × 10^−9M) ([1]; calycosin 30 ×10^−6 g/mL): 114 ± 4.18 Fold | increase of the activity of maximal doses of estradiol on ERα ([1]; with estradiol 1×10^−9M): 2.9 fold | Luciferase activity (Fold over vehicle ± SE) PPARα/WY14643 (30 × 10^−6M) (PPARα; calycosin 3 ×10^−6 g/mL): 197 ± 20.6 Fold | Luciferase activity (Fold over vehicle ± SE) PPARα/WY14643 (30 × 10^−6M) (PPARα; calycosin 10 ×10^−6 g/mL): 257 ± 8.85 Fold | Luciferase activity (Fold over vehicle ± SE) PPARα/WY14643 (30 × 10^−6M) (PPARα; calycosin 30 ×10^−6 g/mL): 294 ± 39.2 Fold | increase of the activity of maximal doses of PPARα agonist (PPARα; with WY14643 30×10^−6M): 1.8 fold | effect on ERβ activity of estradiol ([2]; 1 to 30×10^−6 g/mL + estradiol 1×10^−9M): additive | ERβ activity comparable to % maximal activity of Estradiol [2]: ~400% | maximal fold increase in ERβ activity [2]: 100 fold | Luciferase activity (Fold over vehicle ± SE) ERβ/Estradiol (1 × 10^−9M) ([2]; calycosin 3 ×10^−6 g/mL): 55.2 ± 1.21 Fold | Luciferase activity (Fold over vehicle ± SE) ERβ/Estradiol (1 × 10^−9M) ([2]; calycosin 10 ×10^−6 g/mL): 65.1 ± 2.71 Fold | Luciferase activity (Fold over vehicle ± SE) ERβ/Estradiol (1 × 10^−9M) ([2]; calycosin 30 ×10^−6 g/mL): 70.7 ± 3.61 Fold
Structure (SMILES): COc1ccc(-c2coc3cc(O)ccc3c2=O)cc1O [calycosin, 3′,7-Dihydroxy-4′-methoxyisoflavone]

PPARγ activity comparable to % maximal activity of pioglitazone (PPARγ; 20×10^−6 g/m): ~22% | maximal fold PPARγ activity (PPARγ; 20×10^−6 g/m): 20 fold | ERα activity comparable to % maximal activity of Estradiol ([1]; 5×10^−6 g/ml): ~100% | maximal fold increase in ERα activity ([1]; 5×10^−6 g/ml): 20 fold | PPARα activity comparable to % maximal activity of W14643 (PPARα; 10×10^−6 g/ml): ~73% | maximal fold PPARα activity (PPARα; 10×10^−6 g/ml): 8 fold | Luciferase activity (Fold over vehicle ± SE) PPARα/WY14643 (30 × 10^−6M) (PPARα; daidzein 5 ×10^−6 g/mL): 58.2 ± 14.9 Fold | Luciferase activity (Fold over vehicle ± SE) PPARα/WY14643 (30 × 10^−6M) (PPARα; daidzein 10 ×10^−6 g/mL): 71.3 ± 9.90 Fold | Luciferase activity (Fold over vehicle ± SE) PPARα/WY14643 (30 × 10^−6M) (PPARα; daidzein 20 ×10^−6 g/mL): 53.4 ± 13.3 Fold | ERβ activity comparable to % maximal activity of Estradiol [2]: ~200% | maximal fold increase in ERβ activity [2]: 29 fold
Structure (SMILES): O=c1c(-c2ccc(O)cc2)coc2cc(O)ccc12 [daidzein]
